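Compound exposure: 48 hours, 5 concentrations, 96-well plates. GI50 = concentration required for 50% inhibition of growth.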 The source made the active and inactive calls. Rule as the data show it: active = GI50 up to about 1.1 µM and inactive = higher.
Key:
Assay in all cases: NCI-60 cell line screen, 48 h
[1] = tested on: MDA-MB-435
[2] = tested on: COLO 205
[3] = tested on: K562
[4] = tested on: Hs-578T
[5] = tested on: SW-620
[6] = tested on: SF-295
[7] = tested on: OVCAR-5
[8] = tested on: UACC-257
[9] = tested on: MDA-MB-231
[10] = tested on: RPMI-8226
[11] = tested on: PC-3
[12] = tested on: HT-29
[13] = tested on: MCF7
[14] = tested on: EKVX
[15] = tested on: OVCAR-3
[16] = tested on: SF-268
[17] = tested on: MOLT-4
[18] = tested on: T47D
[19] = tested on: HCC 2998

Compound | GI50 [1] | GI50 [2] | GI50 [3] | GI50 [4] | GI50 [5] | GI50 [6] | GI50 [7] | GI50 [8] | GI50 [9] | GI50 [10] | GI50 [11] | GI50 [12] | GI50 [13] | GI50 [14] | GI50 [15] | GI50 [16] | GI50 [17] | GI50 [18] | GI50 [19]
CNc1ncnc2c1cnn2COCC(O)CO (stereo not drawn) | > 100 µM (inactive) | > 100 µM (inactive) | > 100 µM (inactive) | > 100 µM (inactive) | > 100 µM (inactive) | > 100 µM (inactive) | > 100 µM (inactive) | > 100 µM (inactive) | > 100 µM (inactive) | > 100 µM (inactive) | > 100 µM (inactive) | > 100 µM (inactive) | > 100 µM (inactive) | > 100 µM (inactive) | > 100 µM (inactive) | > 100 µM (inactive) | > 100 µM (inactive) | > 100 µM (inactive) | > 100 µM (inactive)
CSc1cc(Cl)c(C)cc1S(=O)(=O)NC(=O)NNc1ccc(Cl)cc1 | > 100 µM (inactive) | > 100 µM (inactive) | > 100 µM (inactive) | 34.1 µM (inactive) | > 100 µM (inactive) | > 100 µM (inactive) | > 100 µM (inactive) | – | > 100 µM (inactive) | – | 80.5 µM (inactive) | > 100 µM (inactive) | > 100 µM (inactive) | > 100 µM (inactive) | > 100 µM (inactive) | > 100 µM (inactive) | 46.6 µM (inactive) | > 100 µM (inactive) | 36.2 µM (inactive)
CC(=O)C1(c2ccccc2)CCN(Cn2sc3nc(C)cc(C)c3c2=O)CC1 | 23.1 µM (inactive) | 17.6 µM (inactive) | 26.7 µM (inactive) | 30.4 µM (inactive) | 24.4 µM (inactive) | > 100 µM (inactive) | 19.5 µM (inactive) | – | 33 µM (inactive) | 56.9 µM (inactive) | 37.6 µM (inactive) | 19.1 µM (inactive) | 40 µM (inactive) | 23.3 µM (inactive) | 37.5 µM (inactive) | 34.8 µM (inactive) | 27.7 µM (inactive) | 55.6 µM (inactive) | 25 µM (inactive)
CC1(C)C2CCC1(C)[C@H](n1c(=O)n([C@@H]3CC4CCC3(C)C4(C)C)c(=O)n([C@@H]3CC4CCC3(C)C4(C)C)c1=O)C2 | 76.7 µM (inactive) | – | 85.9 µM (inactive) | 37.9 µM (inactive) | 98.2 µM (inactive) | 29.6 µM (inactive) | 64 µM (inactive) | 55.8 µM (inactive) | 45.5 µM (inactive) | 57.9 µM (inactive) | 67.9 µM (inactive) | 56.8 µM (inactive) | 71.9 µM (inactive) | 30 µM (inactive) | 35.4 µM (inactive) | 41.6 µM (inactive) | 63.4 µM (inactive) | 42.6 µM (inactive) | 22 µM (inactive)
Cc1cc(N(CCC#N)CCC#N)ccc1C(/N=N\c1ccc(C(=O)O)cc1)=N\NC(=O)c1cc(Cl)ccc1O | > 100 µM (inactive) | > 100 µM (inactive) | > 100 µM (inactive) | 19.7 µM (inactive) | – | 12.4 µM (inactive) | > 100 µM (inactive) | > 100 µM (inactive) | 26.6 µM (inactive) | > 100 µM (inactive) | 61 µM (inactive) | > 100 µM (inactive) | 32.4 µM (inactive) | 33 µM (inactive) | 56.2 µM (inactive) | 19.2 µM (inactive) | > 100 µM (inactive) | 40.7 µM (inactive) | > 100 µM (inactive)
CCO/C=N/NC(=O)CSc1nc2ccc(I)cc2c(=O)n1Cc1ccccc1 | 38.7 µM (inactive) | 57.4 µM (inactive) | 11 µM (inactive) | 34.6 µM (inactive) | 46.2 µM (inactive) | 56.4 µM (inactive) | > 100 µM (inactive) | > 100 µM (inactive) | 38 µM (inactive) | 49.3 µM (inactive) | 43.9 µM (inactive) | 40.2 µM (inactive) | 33.6 µM (inactive) | 22.9 µM (inactive) | 60 µM (inactive) | 44.3 µM (inactive) | 28.5 µM (inactive) | 44.9 µM (inactive) | 43.5 µM (inactive)
NC1(C(=O)O)CCCC1C(=O)O (stereo not drawn) | > 100 µM (inactive) | > 100 µM (inactive) | > 100 µM (inactive) | > 100 µM (inactive) | > 100 µM (inactive) | > 100 µM (inactive) | > 100 µM (inactive) | > 100 µM (inactive) | > 100 µM (inactive) | > 100 µM (inactive) | > 100 µM (inactive) | > 100 µM (inactive) | > 100 µM (inactive) | > 100 µM (inactive) | > 100 µM (inactive) | > 100 µM (inactive) | > 100 µM (inactive) | > 100 µM (inactive) | –
CCCCCCCCOC(=O)C12Oc3ccc(-c4ccc5c(c4O)C(=O)C4=C(O)CC(C)C(O)C4(C(=O)OCCCCCCCC)O5)c(O)c3C(=O)C1=C(O)CC(C)C2O (stereo not drawn) | 9.86 µM (inactive) | 20.9 µM (inactive) | 2.93 µM (inactive) | 11.6 µM (inactive) | 6.85 µM (inactive) | 8.41 µM (inactive) | 24 µM (inactive) | 34.8 µM (inactive) | 23.8 µM (inactive) | – | 23.2 µM (inactive) | 27.2 µM (inactive) | 11.4 µM (inactive) | 28.5 µM (inactive) | 24.2 µM (inactive) | 12.2 µM (inactive) | 16.3 µM (inactive) | 16.2 µM (inactive) | 28.9 µM (inactive)
CCOC(=O)/C=C(/OCC)[C@@H]1C(C(=O)c2ccc(Cl)cc2)[C@H]1/C(=C\C(=O)OCC)OCC (stereo partly drawn) | > 100 µM (inactive) | 95.3 µM (inactive) | 4.55 µM (inactive) | > 100 µM (inactive) | > 100 µM (inactive) | > 33.8 µM (inactive) | > 100 µM (inactive) | > 100 µM (inactive) | > 44.4 µM (inactive) | 5.35 µM (inactive) | > 30.5 µM (inactive) | > 51.2 µM (inactive) | > 100 µM (inactive) | > 100 µM (inactive) | > 100 µM (inactive) | > 100 µM (inactive) | > 20.5 µM (inactive) | > 72.9 µM (inactive) | –
CC(C)=CCN(N=O)c1ncnc2[nH]cnc12 | > 100 µM (inactive) | > 100 µM (inactive) | 73.6 µM (inactive) | > 100 µM (inactive) | > 100 µM (inactive) | > 100 µM (inactive) | > 100 µM (inactive) | > 100 µM (inactive) | > 100 µM (inactive) | 88.1 µM (inactive) | 94.6 µM (inactive) | > 100 µM (inactive) | > 100 µM (inactive) | > 100 µM (inactive) | > 100 µM (inactive) | > 100 µM (inactive) | > 100 µM (inactive) | 94.6 µM (inactive) | > 100 µM (inactive)
c1cc(-c2ccc(-c3ccc(-c4ccc(-c5ccncc5)o4)cc3)o2)ccn1 | 15.5 µM (inactive) | 16.1 µM (inactive) | 15.7 µM (inactive) | 64.1 µM (inactive) | 28.2 µM (inactive) | 15 µM (inactive) | 24.9 µM (inactive) | 15.8 µM (inactive) | 29 µM (inactive) | – | 18.7 µM (inactive) | 11.8 µM (inactive) | 18.8 µM (inactive) | 22.4 µM (inactive) | 23 µM (inactive) | 20.7 µM (inactive) | 6.34 µM (inactive) | 11.4 µM (inactive) | 18.2 µM (inactive)
COc1cc2c(cc1OC)C1=Cc3ccc(OC)c(OC)c3C(C#N)N1CC2 (stereo not drawn) | 25.9 µM (inactive) | 18.2 µM (inactive) | – | 35.8 µM (inactive) | 47.6 µM (inactive) | 37.1 µM (inactive) | > 100 µM (inactive) | 17.7 µM (inactive) | 28.8 µM (inactive) | 20.7 µM (inactive) | 32.4 µM (inactive) | 33.7 µM (inactive) | 29.7 µM (inactive) | 96.8 µM (inactive) | 34.2 µM (inactive) | 29.7 µM (inactive) | 33.1 µM (inactive) | 9.2 µM (inactive) | 18.5 µM (inactive)
Oc1cc(-c2cccc(C(F)(F)F)c2)nc2cc3c(cc12)OCO3 | 0.935 µM (active) | 8.93 µM (inactive) | 0.26 µM (active) | 1.66 µM (inactive) | 2.21 µM (inactive) | – | 1.49 µM (inactive) | – | 1.87 µM (inactive) | 1.77 µM (inactive) | 0.365 µM (active) | 13.7 µM (inactive) | 2.23 µM (inactive) | 1.5 µM (inactive) | – | – | 2.82 µM (inactive) | > 50 µM (inactive) | 3.44 µM (inactive)
CCn1c(=O)c2c3ccc(OC(C)=O)cc3[nH]c2c2ccc(OC(C)=O)cc21 | 41 µM (inactive) | 30.9 µM (inactive) | 24 µM (inactive) | 34.5 µM (inactive) | 30.7 µM (inactive) | 36.1 µM (inactive) | > 100 µM (inactive) | 42.1 µM (inactive) | 33.1 µM (inactive) | – | 26.9 µM (inactive) | 43.3 µM (inactive) | 23.1 µM (inactive) | – | 32 µM (inactive) | 35.8 µM (inactive) | 17.6 µM (inactive) | 18.5 µM (inactive) | 23.7 µM (inactive)
O=[N+]([O-])c1ccc2c(c1)n1c(N3CCCC3)[n+]3ccccc3c1c1c3ccccn3c(N3CCCC3)[n+]21.[O-][Cl+3]([O-])([O-])[O-].[O-][Cl+3]([O-])([O-])[O-] | > 100 µM (inactive) | 54 µM (inactive) | 23.7 µM (inactive) | 83.2 µM (inactive) | 65.9 µM (inactive) | 61.4 µM (inactive) | > 100 µM (inactive) | > 100 µM (inactive) | > 100 µM (inactive) | > 100 µM (inactive) | > 100 µM (inactive) | – | 9.46 µM (inactive) | > 100 µM (inactive) | > 100 µM (inactive) | 17.5 µM (inactive) | 43.2 µM (inactive) | > 100 µM (inactive) | > 100 µM (inactive)
